Results from patent US11141384B2, “Long-acting formulations” (Janssen Pharmaceutica NV, priority 2017, dated 2021).
Read-outs that look alike come from different tables or passages of the source.

Experiments:
[1] = system: M. tuberculosis H37Rv; format: in vivo, Mycobacterium tuberculosis; details: for Mean (SD) log10 M. tuberculosis CFU/lung: 5 days per week
[2] = Oral (PO) 13 week toxicity study in rats, total exposure; format: in vivo; details: rat, top dose of 13 week study
[3] = in vivo; cited from earlier work
[4] = system: M lepra; details: cited from earlier work
[5] = Oral (PO) 13 week toxicity study, comparison with dog IM/SC exposure; format: in vivo, beagle dog; details: 13 week PO study, 18 mg/kg
[6] = biological target: mycobacterial ATP synthase (Mycobacterium tuberculosis, UniProt P9WPS1+P9WPV7); details: cited from earlier work

In the case of `CO[C@H]1/C=C/O[C@@]2(C)Oc3c(C)c(O)c4c(O)c(c(/C=N/N5CCN(C)CC5)c(O)c4c3C2=O)NC(=O)/C(C)=C\C=C\[C@H](C)[C@H](O)[C@@H](C)[C@@H](O)[C@@H](C)[C@H](OC(C)=O)[C@@H]1C` [R, rifampin], the “reduction of mean M. tuberculosis lung CFU count compared to untreated mice” value ([1]; 10 mg/kg by gavage 5/7, after 4 weeks of treatment) is reported as “approximately 1 log10 CFU/lung”, the “reduction of mean M. tuberculosis lung CFU count compared to untreated mice” value ([1]; 10 mg/kg by gavage 5/7, after 8 weeks of treatment) is reported as “about 2 log10 CFU/lung” and the “reduction of mean M. tuberculosis lung CFU count compared to untreated mice” value ([1]; 10 mg/kg by gavage 5/7, after 12 weeks of treatment) is reported as roughly 3 log10 CFU/lung. For the same compound, the “Mean (SD) log10 M. tuberculosis CFU/lung” value ([1]; regimen R10 (5/7): rifampin 10 mg/kg, Week 4 of treatment) was 3.39 (0.46) log10 CFU/lung, the “Mean (SD) log10 M. tuberculosis CFU/lung” value ([1]; regimen R10 (5/7): rifampin 10 mg/kg, Week 8 of treatment) was 2.74 (0.62) log10 CFU/lung and the “Mean (SD) log10 M. tuberculosis CFU/lung” value ([1]; regimen R10 (5/7): rifampin 10 mg/kg, Week 12 of treatment) was 1.27 (0.85) log10 CFU/lung.
In the case of `COc1nc2ccc(Br)cc2cc1[C@@H](c1ccccc1)[C@@](O)(CCN(C)C)c1cccc2ccccc12` [bedaquiline], the “total exposure after PO administration during 3 months” value [2] is given as 2 385 383 ng·h/mL, the “mean terminal elimination half-life” value [3] is given as “approximately 5.5 months” and the “minimal dose killing 99% of bacilli” value [4] is given as less than 5.0 mg/kg/wk. The “total exposure after PO for the same period” value [5] was 13 988 520 ng·h/mL, the “selectivity index for mycobacterial ATP synthase versus eukaryotic mitochondrial ATP synthase” value [6] was “more than 20000” and the “decline in lung CFU compared to untreated control mice” value ([1]; 2.67 mg/kg by gavage 5/7, 12 weeks (total 160 mg/kg)) was 1.7 log10 CFU/lung. The “decline in lung CFU counts” value ([1]; 5.33 mg/kg by gavage 5/7, 12 weeks (total 320 mg/kg)) was “about 3 log10 CFU/lung”, the “additional decrease of lung CFU counts” value ([1]; 8 mg/kg by gavage 5/7, 8 weeks versus 4 weeks) was 1 log10 and the “decline in lung CFU relative to untreated mice” value ([1]; 8 mg/kg by gavage 5/7, four weeks) was “about 1.5 log10 CFU/lung”. The “reduction of M. tuberculosis lung CFU compared to untreated mice” value (from here on “reduction of M. tuberculosis lung CFU”) ([1]; 25 mg/kg by gavage 5/7, after 4 weeks) was “about 1.7 log10 CFU/lung”, the “reduction of M. tuberculosis lung CFU” value ([1]; 25 mg/kg by gavage 5/7, after 8 weeks) was roughly 4.0 log10 CFU/lung and the “reduction of M. tuberculosis lung CFU” value ([1]; 25 mg/kg by gavage 5/7, after 12 weeks) was roughly 4.9 log10 CFU/lung. For the same compound, the “Mean (SD) log10 M. tuberculosis CFU/lung” value ([1]; regimen B2.67 (5/7): oral bedaquiline 2.67 mg/kg, Week 4 of treatment) was 3.96 (0.35) log10 CFU/lung, the “Mean (SD) log10 M. tuberculosis CFU/lung” value ([1]; regimen B2.67 (5/7): oral bedaquiline 2.67 mg/kg, Week 8 of treatment) was 3.52 (0.38) log10 CFU/lung and the “Mean (SD) log10 M. tuberculosis CFU/lung” value ([1]; regimen B2.67 (5/7): oral bedaquiline 2.67 mg/kg, Week 12 of treatment) was 3.16 (0.24) log10 CFU/lung. The “Mean (SD) log10 M. tuberculosis CFU/lung” value ([1]; regimen B5.33 (5/7): oral bedaquiline 5.33 mg/kg, Week 4 of treatment) was 3.83 (0.25) log10 CFU/lung, the “Mean (SD) log10 M. tuberculosis CFU/lung” value ([1]; regimen B5.33 (5/7): oral bedaquiline 5.33 mg/kg, Week 8 of treatment) was 3.15 (0.47) log10 CFU/lung and the “Mean (SD) log10 M. tuberculosis CFU/lung” value ([1]; regimen B5.33 (5/7): oral bedaquiline 5.33 mg/kg, Week 12 of treatment) was 1.98 (0.17) log10 CFU/lung. For the same compound, the “Mean (SD) log10 M. tuberculosis CFU/lung” value ([1]; regimen B8 (5/7): oral bedaquiline 8 mg/kg, Week 4 of treatment) was 3.30 (0.12) log10 CFU/lung, the “Mean (SD) log10 M. tuberculosis CFU/lung” value ([1]; regimen B8 (5/7): oral bedaquiline 8 mg/kg, Week 8 of treatment) was 2.42 (0.26) log10 CFU/lung and the “Mean (SD) log10 M. tuberculosis CFU/lung” value ([1]; regimen B8 (5/7): oral bedaquiline 8 mg/kg, Week 12 of treatment) was 0.69 (0.43) log10 CFU/lung. For the same compound, the “Mean (SD) log10 M. tuberculosis CFU/lung” value ([1]; regimen B25 (5/7): oral bedaquiline 25 mg/kg, Week 4 of treatment) was 3.01 (0.45) log10 CFU/lung, the “Mean (SD) log10 M. tuberculosis CFU/lung” value ([1]; regimen B25 (5/7): oral bedaquiline 25 mg/kg, Week 8 of treatment) was 0.82 (0.49) log10 CFU/lung and the “Mean (SD) log10 M. tuberculosis CFU/lung” value ([1]; regimen B25 (5/7): oral bedaquiline 25 mg/kg, Week 12 of treatment) was 0.07 (0.09) log10 CFU/lung.
In the case of `CNCC[C@@](O)(c1cccc2ccccc12)[C@H](c1ccccc1)c1cc2cc(Br)ccc2nc1OC` [Formulation M2], the “mean terminal elimination half-life” value [3] is listed as “approximately 5.5 months”.
